System: P. falciparum 3D7 growth, pLDH absorbance
Test: P. falciparum 3D7 growth inhibition, dose response, strain 3D7 (AID 2305)

SMILES	IC50
COc1cc(Nc2nc(N)n(C(=O)c3ccc4c(c3)OCO4)n2)cc(OC)c1OC	1130 nM
Nc1ncc(-c2cn[nH]c2)cc1-c1nc2ccc(Cl)cc2[nH]1	800 nM
O=C(/C=C/c1ccc(Cl)c(Cl)c1)NCCCCCCN1CCCN(C(=O)Nc2cc(F)cc(F)c2)CC1	710 nM
CN(/N=C/c1ccc(Cl)cc1)c1nc(NCCc2ccc(O)cc2)nc(N2CCNCC2)n1	1350 nM
CC(C)NC(=O)Cn1cc(C2CCN(CC3CCN(C(=O)/C=C/c4ccc(Cl)c(Cl)c4)CC3)CC2)c2ccccc21	1030 nM
COc1ccc(NC(=O)C=Cc2ccc(Oc3ccccc3Cl)c([N+](=O)[O-])c2)cc1OCCN(C(C)C)C(C)C	880 nM
Cc1cc(C2CCN(CCCCNC(=O)c3ccc(NC(=O)c4ccc(Cl)cc4)cc3)CC2)c(C)cc1OCc1nccn1C	830 nM
CCNC(=O)Nc1cccc(-c2cccc(-c3nc4c(C)cccc4[nH]3)c2)c1	1040 nM
COc1cc(Cc2cnc(N)nc2N)cc(OCCCCC2NC(=O)NC2=O)c1OC (configuration not stated)	710 nM
COc1ccc(CNCc2ccc(-c3cccc(-c4nc5ccc(C(F)(F)F)cc5[nH]4)c3)cc2)cc1	150 nM
Cc1ccc(NC(=O)NCCCCCN2CCC(c3c[nH]c4ccccc34)CC2)cc1I	810 nM
CC[C@H]1CN2CC[C@H]1C[C@H]2[C@H](O)c1cc(N2CCCC(CO)C2)nc2ccc(OC)cc12 (some centres not stated)	80 nM
COc1cccc(-c2cc3nc4c(c(NCCCn5ccnc5)n3n2)CCCC4)c1	680 nM
Cc1ccc(C(=O)N2CCN(Cc3nccs3)CC2)cc1	1010 nM
COc1cccc(OC2CCN(C(=O)c3cc(C(C)(C)C)nn3Cc3ccccc3)CC2)c1	250 nM
CC(C)(C)c1ccc(CNC(=O)c2ccc(-c3nc4ccc(C(C)(C)C)cc4[nH]3)cc2)cc1	840 nM
FC(F)(F)c1ccc2c(NCCNc3ccnc4cc(C(F)(F)F)ccc34)ccnc2c1	30 nM
CNS(=O)(=O)c1ccc(NC(=O)c2cc(-c3cccnc3)nc3ccc(Br)cc23)cc1	910 nM
COc1ccc2nccc([C@@H](O)CN3CCC(NCc4cc5ccccc5nn4)CC3)c2c1	1200 nM
Cc1cc2nc(-c3ccc(/C=C/C(=O)NC4CCCCC4)cc3)[nH]c2cc1C	1010 nM
Clc1nc(Cl)c2c(ccn2Cc2ccccc2)n1	790 nM
CCCCc1cc(NCc2ccncc2)nc(Nc2ccc(C)cc2)n1	790 nM
COc1cc(Br)c(NC(=O)Nc2ccc(C(F)(F)F)c(O[C@@H]3CCN(C)C3)c2)cc1OC	630 nM
CN(c1ccc2c(c1)nc(Nc1ccc(Cl)cc1)n2C)c1ccnc(Nc2ccc(CS(C)(=O)=O)cc2)n1	760 nM
N#Cc1ccc(N(CCOc2ccc(Cl)c(F)c2)Cc2ccccc2C(F)(F)F)cc1C(F)(F)F	680 nM

SMILES	IC50
O=C(/C=C/c1ccc(Cl)c(Cl)c1)NCCCCCN1CCC(NC(=S)Nc2ccc(Cl)c(Cl)c2)CC1	530 nM
COc1c(F)ccc2ncc(Cl)c(CCN3CCC(NCc4ccc5c(n4)NC(=O)CS5)CC3)c12	540 nM
C#CCNC(=O)c1ccc(-c2ccnc(Nc3cccc(CCCN4CCOCC4)c3)n2)s1	1000 nM
CC(C)(C)CCN1CCC(NC(=O)c2ccc(-c3cccc(C(F)(F)F)c3)s2)CC1	760 nM
CCCC(=O)NC(c1ccc(C)cc1)c1ccc2cccnc2c1O (configuration not stated)	960 nM
O=C(Nc1cccc(CN2CCCN(Cc3ncc[nH]3)CC2)c1)c1ccc(Cl)c(Cl)c1	800 nM
CC(C)(C)C/C=C\c1ccc(C(=O)NCC2CC2)cc1	850 nM
CCN(CCCN1CCCCC1)c1cc(C)nc(Nc2ccc(Oc3ccccc3)cc2)n1	300 nM
O=C(NCCCNc1ccnc2cc(Cl)ccc12)c1ccccc1F	320 nM
CC(=O)Nc1ccc(C(=O)Nc2cccc(-c3ccc(-c4nc5ccccc5[nH]4)cc3)c2)cn1	210 nM
CO/C(=C\C=C\c1cc2cc(Cl)c(Cl)cc2[nH]1)C(=O)NCCCN1CCCC[C@H]1C	790 nM
COc1ccc(CCN(C)CCOc2ccc(NC(=O)c3ccc([N+](=O)[O-])c4c(=O)c5ccccc5[nH]c34)cc2)cc1OC	930 nM
CN(CC(=O)Nc1cc(C(F)(F)F)ccc1-n1cncn1)Cc1ccc2ccccc2c1	230 nM
Cc1cccc2[nH]c(-c3cccc(-c4ccc(NC(=O)C(C)C(=O)NC(C)C)cc4)c3)nc12 (configuration not stated)	1000 nM
CC(C)COc1ccc(Cl)cc1Cc1nc(-c2nc3ccc(CN4CCCCC4)cc3[nH]2)co1	740 nM
COc1ccccc1CCNc1nc(C)cc(N[C@@H](Cc2ccccc2)C(=O)NCCc2ccccc2)n1	1110 nM
COc1ccc(Nc2nccc(-c3ccc(NC(=O)c4cc5cc(F)ccc5[nH]4)cc3)n2)cc1	630 nM
CC(C)c1ccc(NC(=O)c2cccc(CN3CCCN(Cc4cccc(C#N)c4)CC3)c2)cc1	950 nM
NC(N)=NN=CC(=O)Nc1ccc(Cl)c(Cl)c1	740 nM
CN1C(=CC(=O)NC(=O)c2ccccc2)C(C)(C)c2ccccc21	640 nM
CCN(CC)C(=NCCCCCCCCN=C(/N=C(/N)Nc1ccc(Cl)cc1)N(CC)CC)/N=C(/N)Nc1ccc(Cl)cc1	400 nM
CN1CCCC(CN2CCN(Cc3ccc(-c4ccc(-c5nc6ccccc6[nH]5)cc4)cc3)CC2)C1 (configuration not stated)	140 nM
CC(=O)N1N=C(c2ccc(Cl)cc2)Sc2c1nc(C1CCCCC1)n2C(C)=O	250 nM
CCOC(=O)c1[nH]c(-c2ccc(-c3ccccc3)cc2)nc1N	420 nM
Cc1cccc2[nH]c(-c3ccc(-c4ccc(CNCC5CCCO5)cc4)s3)nc12 (configuration not stated)	740 nM

SMILES	IC50
CC(C)(C)c1nn(-c2ccccc2)c2[nH]c(=O)c(CNC3CCCC3)cc12	850 nM
c1ccc(-c2ccc(-c3nc4ccccc4[nH]3)cc2)cc1	810 nM
COc1ccc(Nc2ncc3c(-c4cccc(NC(=O)Cc5cccc(F)c5)c4)c[nH]c3n2)cc1OC	570 nM
Cc1ccc(C(=O)Nc2cccc([N+](=O)[O-])c2)cc1S(=O)(=O)N1CC(C)CC(C)C1 (configuration not stated)	790 nM
CC(CN1CCN(C)CC1)C(=O)Nc1ccc(-c2cccc(-c3nc4ccc(C(F)(F)F)cc4[nH]3)c2)cc1 (configuration not stated)	400 nM
Cc1[nH]c(C)c(-c2ccc(OCc3ccc(F)cc3)cc2)c(=O)c1Br	80 nM
Brc1cc(CNCCCNc2nc3ccccc3[nH]2)sc1Br	220 nM
C=Cc1cc(NC(=O)N2CCc3cc(OC)c(C(F)(F)F)cc32)cc(-c2cccnc2)c1	700 nM
COc1ccc(-c2cncc(-c3ccc(OC)c(OC)c3)n2)cc1OC	780 nM
O=C(Nc1ccc(-c2nc3ccccc3[nH]2)cc1)c1cccc(S(=O)(=O)N2CCOCC2)c1	900 nM
COc1ccc2c(NN=Cc3ccc(F)cc3)cc(C)nc2c1	770 nM
CCCCNC(=O)[C@H](CC1CCCCC1)NC(=O)c1ccc(O)c(-c2ccc(OC)cc2)c1	920 nM
CC[C@H](C)CNCc1ccc(OCc2cccc(COc3ccc(CNC[C@@H](C)CC)cc3I)c2)c(I)c1	400 nM
Cc1ccc(CNC(=O)[C@H](CCCN)Nc2nc(NCC3CCCCC3)ncc2C)cc1	990 nM
Brc1ccc(Nc2ccnc3cc(-c4nccs4)ccc23)cc1Oc1ccnc2cc(-c3nccs3)ccc12	1060 nM
COc1ccc(NC(=O)/C=C/c2cc(F)cc(C(F)(F)F)c2)cc1OCCN(C(C)C)C(C)C	670 nM
CCc1ccc(CN2CCC(CN(c3ccc(N4CCOCC4)c(F)c3)S(=O)(=O)c3ccc(C(C)(C)CC)cc3)CC2)cc1	710 nM
OC1CCC(Nc2ccc3ncc(-c4ccc5ccccc5c4)n3n2)CC1 (configuration not stated)	980 nM
Cc1cccc2[nH]c(-c3cccc(-c4ccc(NC(=O)Nc5ccc6c(c5)OCO6)cc4)c3)nc12	140 nM
CN(CCN1CCCC1)c1nc2ccc(-n3cnc4cc(-c5ccc(Cl)cc5)sc4c3=O)cc2[nH]1	820 nM
COCCOC(=O)C(=O)c1c(-c2ccccc2)c(-c2ccc(OC)c(OC)c2)c2c3cc(OC)c(OC)cc3ccn12	500 nM
Cc1cccc2[nH]c(-c3cccc(-c4ccc(NC(=O)C5CCN(C)CC5)cc4)c3)nc12	830 nM
Cc1ccccc1-c1nc2c(CN3CCC(O)(c4ccccc4)CC3)c(O)ccc2[nH]1	870 nM
Cc1cc(NC(=O)Nc2cccc(Cl)c2Cl)c2ccccc2n1	740 nM
Cc1ccc(Oc2ccccc2NC(=O)CCc2nc3ccccc3c(=O)[nH]2)cc1	830 nM

SMILES	IC50
COCCn1c(C)nc2ccccc2c1=O	1460 nM
CC(=O)Nc1ccc(CN2CCc3ccc(NS(=O)(=O)c4cccc(OCc5ccc(Cl)cc5)c4)cc3CC2)s1	910 nM
Cc1nc2ccc3ccc(CNc4ccc(C(=O)N[C@@H](CCC(=O)O)C(=O)O)cc4)cc3c2c(=O)[nH]1	180 nM
COc1cc(Cc2c(C)nc3nc(N)nc(N)c3c2C)c(Br)c(OC)c1OC	400 nM
N#Cc1cccc(NC(=O)Nc2cccc(-c3ccc(-c4nc5ccc(C(F)(F)F)cc5[nH]4)cc3)c2)c1	250 nM
O=C1NC(c2ccc(N3CCCCCC3)cc2)Nc2ccccc21 (configuration not stated)	570 nM
CCC(CC)(Cc1ccccc1)NC(=O)[C@H](Cc1ccc(OC)c(OC)c1)Nc1ccc(C#N)c2ccccc12	870 nM
Cc1cc(Nc2ccncc2)n2nc(C)c(-c3ccccc3Cl)c2n1	650 nM
FC(F)(F)c1ccc(CNCC2CCN(Cc3ccc4c(c3)OCO4)CC2)cc1	1360 nM
CC(C)CNCc1cccc(-c2cccc(CN(CCCN3CCN(C)CC3)C(=O)NC3CCCCC3)c2)c1	760 nM
c1ccc(-c2ccc(-c3csc(Nc4ccncc4)n3)cc2)cc1	1010 nM
CN1CCN(c2cc(NC(=O)c3ccc(-c4ccc(Cl)cc4)cc3)ccc2Cl)CC1	610 nM
OC(CNc1cccc(Cl)c1)Cn1c2ccc(Cl)cc2c2cc(Cl)ccc21 (configuration not stated)	960 nM
COc1cc2ncnc(Nc3ccc4nc(-c5ccccc5)[nH]c4c3)c2cc1OC	440 nM
COc1cc(Cn2ccc3c4c(N)nc(N)nc4ccc32)cc(OC)c1OC	10 nM
O=C(NC1CCC(CN2CCC(c3c[nH]c4ccccc34)CC2)CC1)NC12CC3CC(CC(C3)C1)C2 (configuration not stated)	1060 nM
O=S(=O)(c1cccc(C(F)(F)F)c1)N1CCC(CO)(Cc2cccc(C(F)(F)F)c2)CC1	960 nM
CCCCNC(=O)C(C)NC(=O)c1ccc(O)c(-c2ccc(Cl)c(Cl)c2)c1 (configuration not stated)	820 nM
COc1ccc2ncc(F)c(CCN3CCC(NCc4cc(F)c5c(c4)OCCO5)CC3)c2n1	350 nM
COc1ccccc1C1CCN(C2CCC(NC(=O)c3cc4cc(C(C)C)ccc4[nH]3)CC2)CC1 (configuration not stated)	850 nM
COc1ccc2nccc(N3CCN(CCNCc4ccc5c(n4)NC(=O)CO5)CC3)c2n1	880 nM
CC(C)CCN1C(=O)C(NC(=O)Oc2ccccc2)C(=O)N(CC23CC4CC(CC(C4)C2)C3)c2ccccc21 (configuration not stated)	750 nM
